Test results taken from US12492243B2, “DNA antibody constructs for use against Pseudomonas aeruginosa” (priority 2016, dated 2025).

Test system: Pseudomonas aeruginosa strain 6077
Assay: Lethal pneumonia challenge in BALB/c mice
Assay type: in vivo
Details: MEM 2.3 mg/kg alone or DMAb-DVSF3 100 μg, lethal PA 6077
Experimental: The unrelated dengue virus DMAb-DVSF3^20 was included as a control. A fourth group of animals received an intraperitoneal (IP) injection of purified protein IgG ABC123 (2 mg/kg) on day −1 before challenge. […] Animals were monitored for 6 days following intranasal challenge for survival as described in^16. Briefly, animals were anesthetized with ketamine and xylazine followed by intranasal administration of the bacterial inoculum contained in 0.05 ml. […] IL-1β, IL-6 and KC/GRO were quantified from the supernatant of lung homogenates using a multiplex kit (Meso Scale Diagnostics) according to the manufactures instructions. For DMAb and meropenem (MEM) combination experiments, MEM was administered subcutaneously 4 hours after infection.

SMILES: C[C@@H](O)[C@H]1C(=O)N2C(C(=O)O)=C(S[C@@H]3CN[C@H](C(=O)N(C)C)C3)[C@H](C)[C@H]12 [MEM, meropenem, reference compound]
- survival, DMAb and meropenem combination experiment: did not survive
